# Patent US9897592B2, “Methods for identifying arthropod repellents and attractants, and compounds and compositions identified by such methods” (The Regents of the University of California, priority 2013, dated 2018)
# Assays:
# C. quinquefasciatus = test: Semi-field two-choice greenhouse trapping; type: in vivo, Culex quinquefasciatus
# Excerpt: FIG. 4g is a schematic of two-choice greenhouse experiments with two counterflow geometry traps, in which mosquitoes were trapped overnight in odorant-baited and solvent (water)-baited traps.
# Semi-field trapping: Two modified greenhouses at the Agricultural Experiment Station at the University of California, Riverside, were used as described previously^2, with modifications. Fifty laboratory-reared, mated, non-blood fed female C. quinquefasciatus aged 8-14 days and starved for 24 hrs were released each evening around 5 pm and traps collected at ˜7 am. Counter flow geometry traps baited with CO2 (250 ml min^−1, ˜670 mmol/hr) odorant were used as described^2, with modifications. Odorant solutions in water were dispensed from 20 cm long gauze wicks protruding from uncapped 50 ml tubes beneath the trap outflow. For each trial, one baited trap and one control trap (water-filled) were placed in each of two greenhouses (FIG. 4g). For two-choice CO2 trials, water was placed under both traps. For two-choice ethyl pyruvate trials, both traps expelled CO2, and one trap also released ethyl pyruvate from an open 2.8×7 cm glass vial. Since ethyl pyruvate has very low volatility pure compound was used to generate ˜1.7 mmol/hr. An empty vial was placed under control traps. Treatment position and trap were alternated across trials. Volume of solution lost from tubes containing 5%, 10%, or 20% cyclopentanone were measured after each trial and the average loss of molecules calculated respectively for 3 concentrations as (±s.d.) of 0.7 (±0.1), 1.7 (±0.4), and 3.8 (±0.3) mmol/hr, respectively. Preference index=(# mosquitoes in odor-baited trap−# mosquitoes in control trap)/(total # mosquitoes caught in both traps).
# The efficacy of cyclopentanone as a lure was tested using traps in controlled semi-field experiments with C. quinquefasciatus, a mosquito present in Southern California, where the experiments took place. 50 female mosquitoes were released overnight in a modified greenhouse that contained two counter-flow geometry mosquito traps (FIG. 4g). One trap was baited with an evaporative lure of cyclopentanone diluted in water, and the second trap was baited with water alone.
# cpA neuron [1] = test: Single-sensillum recording: activation of cpA neuron by odorants; type: cell-based, Aedes aegypti; conditions: for Activation (spikes s^−1): A. aegypti cpA, 0.5-s pulses, odorants 10^−2 in paraffin oil or water, solvent response subtracted
# Summary of the method: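 Single-sensillum extracellular recordings from cp sensilla of adult female A. aegypti (Rockefeller), 3-12 days post-emergence. Odorants at 10^−2 in paraffin oil or water, 0.5-s pulses; solvent response subtracted, spikes counted; n=2-6, sensilla with <20 spikes s^−1 to negative control only.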
# cpA neuron [2] = test: cpA dose response in C. quinquefasciatus; type: cell-based, Culex quinquefasciatus
# Procedure: FIG. 4d is a graph illustrating the dose responses of the cpA neuron to cyclopentanone in A. aegypti and C. quinquefasciatus, where n=5-6.
# Adult female A. aegypti (Linnaeus 1762) (Rockefeller strain) A. gambiae sensu stricto Giles 1902 (G3 strain), or C. quinquefasciatus Say 1823 were tested 3-12 days post-emergence with single-sensillum extracellular recordings. Chemicals were obtained from Sigma-Aldrich at the highest purity (typically >99%) and were dissolved in paraffin oil or water. […] Response to clean beads was subtracted from the results reported. Only sensilla with cpA activity of <20 spikes s^−1 to negative control were considered for analysis.
# Taken together, the strong and conserved cpA response, promising safety and fragrance profile, and ability to mimic CO2 activation made cyclopentanone an excellent candidate for behavioural testing.
# [3] = system: mammalian cation channels; conditions: cited from earlier work
# [4] = target: human acetylcholinesterase (Homo sapiens, UniProt P22303); conditions: cited from earlier work
# A. aegypti [5] = test: Short-range attraction to heat and humidity; type: in vivo, Aedes aegypti; conditions: after pre-exposure; control for general deficits
# Procedure: FIG. 9f illustrates mosquitoes' tendency to rest at the top surface of the cage increased in the presence of a warm, wet stimulus. […] No significant differences due to treatment (n=6 replicates; Mann-Whitney rank-sum test).
# Ten 6-day-old female A. aegypti were starved 30 hrs in a 7 cm diameter×˜5 cm high cage with wire mesh on one side and placed inside an aquarium. After 5 min a beaker with 750 ml warm water (40° C.) and filter paper soaked with 400 μl water were placed 5 mm above the cage (FIG. 9e). CpA-off and sham treated mosquitoes were video-recorded and counted at 30 s intervals.
# A. aegypti [6] = test: Wind tunnel assay of attraction to human foot odor beads; type: in vivo, Aedes aegypti
# Procedure: FIG. 2h is a schematic of wind tunnel assay, where human odor was provided by a dish of glass beads that had been worn in socks for ˜6 hrs (Person 1), and flight behaviour of individual female mosquitoes was recorded for 5 min or until they landed on the beads.
# FIGS. 2i-k are bar graphs illustrating the proportion of butyryl chloride pre-exposed and sham treated mosquitoes presented with beads with no odor or foot odor that landed on beads (FIG. 2i), that took off from the release cage (FIG. 2j), and that did take off that succeeded in landing on the beads (FIG. 2k), where n=20-23 individuals per condition, analysed by one-tailed proportion Z-test, *p<0.05, **p<0.01, ***p<0.001, and error bars are s.e.m. All odorants except CO2 were dissolved in paraffin oil at 10^−2 except where indicated. […]
# antennal neurons = test: Electroantennogram (EAG) after butyryl chloride treatment; type: cell-based, Aedes aegypti
# Procedure: FIG. 2e is a graph illustrating averaged traces and FIG. 2f is a graph illustrating mean electroantennograph (EAG) responses to air puffed over glass beads laden with foot odor or a clean bead control, where EAG peaks are normalized to 3-methyl-1-butanol response, n=9, and analysed by t-test.
# FIG. 9d illustrates EAG responses normalized to the reference odor 3-methyl-1-butanol. No significant differences due to treatment (n=9; t-test).
# Standard whole-antenna recordings were performed with minor modifications. Traces were averaged using Clampfit software (Molecular Devices), and responses were normalized to interspersed pulses of a reference odorant, 3-methyl-1-butanol, according to the formula: Raw response (mV)/(ax+by), where a and b are the responses (mV) to the immediately previous and subsequent reference odor stimulation, respectively, and x and y are the proportion of time elapsed between stimuli (so that x+y=1).
# cpA neuron [7] = test: Butyryl chloride pre-exposure (cpA-off): cp sensillum responses to CO2, skin odorants, foot odor; type: cell-based, Aedes aegypti
# Excerpt: FIG. 2b depicts representative cp responses to 0.5-s pulses of indicated odorants after a 3-min pre-exposure to butyryl chloride (10^−2) (cpA-off) or solvent (sham treatment).
# FIG. 2c is a bar graph illustrating the mean odorant-evoked responses of the cpA neuron in cpA-off and sham treated mosquitoes, and FIG. 2d is a bar graph illustrating the combined odor-evoked responses of two neighbouring neurons, cpB and cpC, where for both of these figures, n=6 individuals, 1-4 sensilla surveyed per individual; analysed by nested ANOVA, and baseline refers to cpA activity in the presence of room air.
# (§1) CpA-off and sham treated mosquitoes were pre-treated for 3 min in an upended 1 L glass dish in which 100 μl of fresh butyryl chloride (1%) or paraffin oil was allowed to vaporize for 10-20 min. The odor delivery system for different screens is shown in FIG. 7b; solvent responses during the same recording session were subtracted. Inhibition screen was tested. For the ultra-prolonged activator the 3-s stimulus was delivered from a 10 ml disposable pipette using a CS-55 stimulus controller (Syntech), CO2 was delivered, and responses to subsequent odor stimuli were calculated by subtracting baseline activity 1 s prior to each stimulus. When responses to repeated pulses of cyclopentanone and CO2 were compared, baseline activity between seconds 5 and 6 following each stimulus was subtracted. Spike counting was done manually or with Igor Pro6.2 (Wavemetrics) with the Neuromatic v2.00 macro (by Jason Rothman), and peak-to-peak spike amplitudes for FIG. 8 were analysed in Clampfit 10.3 (Molecular Devices).
# A. aegypti [8] = test: Hand-in-cage repellency assay; type: in vivo, Aedes aegypti; conditions: mesh treated 500 μl, 10% in acetone
# Excerpt: FIG. 4c depicts representative images (left) of hand-in-cage assay mesh window and a graph (right) illustrating the mean number of mosquitoes on the netting at the indicated time points for ethyl pyruvate-treated or solvent-treated netting. n=8 each.
# Forty 4-10-day-old female A. aegypti were starved 24 hrs and released in a 30×30 cm cage with a glass top, and trials commenced between 1400 and 1700 hrs. A human hand wearing a nitrile glove (Sol-vex) with a 7×6 cm window covered by two layers of fine polyester mesh (BioQuip, mesh size 26×22 holes per in^2) held in place by magnetic spacers, was inserted into the cage. The lower mesh was 1.5 mm above, and upper mesh was 6 mm above the hand. While skin emanations passed freely through the mesh window, the hand was protected from contact with mosquitoes and treated mesh. The outside mesh was treated with ethyl pyruvate (500 μl, 10% in acetone) or solvent. After letting solvent evaporate the glove was assembled. […] Trials were video recorded and mosquitoes on the mesh were counted every 15 s.
# An arm-in-cage repellency assay was used in this Example using gloves with chemical treated mesh-covered windows to quantify attraction of A. aegypti mosquitoes to the human hand without exposing the hand to mosquito bites or skin to contact with test chemicals.
# cpA neuron [9] = test: Inhibition screen: odorant overlaid on 0.15% CO2 stimulus, cpA response; type: cell-based, Aedes aegypti; conditions: overlaid on 0.15% CO2
# Procedure: Percent inhibition was calculated by comparing mean odorant overlay responses to mean solvent overlay responses, and error bars are s.d.
# as §1
# cpA neuron [10] = test: Ethyl pyruvate overlaid on foot odor stimulus, cpA response; type: cell-based, Aedes aegypti; conditions: presented together, 1-s 10^−2 on 2-s foot odor
# Excerpt: FIG. 4b depicts representative trace and mean response when a 1-s stimulus of ethyl pyruvate (10^−2) is overlaid on a 2-s stimulus of foot odor (mixed beads from Person 1 and Person 2), where n=6.
# The cpA inhibitor ethyl pyruvate was selected for testing since it is listed as a GRAS compound, is approved as a flavor agent in food, and has a pleasant smell (fruity, sweet, rum, caramel) (Table 3 above).
# Chain of human acetylcholinesterase (P22303 32-614): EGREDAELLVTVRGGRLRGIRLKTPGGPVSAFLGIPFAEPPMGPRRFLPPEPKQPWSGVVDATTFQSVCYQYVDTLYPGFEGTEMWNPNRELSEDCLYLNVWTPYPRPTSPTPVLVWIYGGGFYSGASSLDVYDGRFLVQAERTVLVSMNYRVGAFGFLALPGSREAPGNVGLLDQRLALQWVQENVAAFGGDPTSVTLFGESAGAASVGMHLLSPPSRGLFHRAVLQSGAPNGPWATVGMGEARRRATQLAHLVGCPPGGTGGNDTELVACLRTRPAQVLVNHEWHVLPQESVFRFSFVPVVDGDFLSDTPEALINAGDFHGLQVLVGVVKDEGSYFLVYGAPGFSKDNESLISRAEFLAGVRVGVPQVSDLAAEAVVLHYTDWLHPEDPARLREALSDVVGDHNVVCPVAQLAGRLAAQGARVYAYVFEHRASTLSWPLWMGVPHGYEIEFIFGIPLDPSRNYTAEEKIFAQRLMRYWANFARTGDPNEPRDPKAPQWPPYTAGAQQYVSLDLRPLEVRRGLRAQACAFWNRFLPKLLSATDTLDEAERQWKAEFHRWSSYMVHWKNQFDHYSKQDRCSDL
smiles,measurement,setting,value
O=C1CCCC1 [Cyclopentanone],fold fewer molecules released than CO2 for comparable catch rate,C. quinquefasciatus; calculated from amount evaporated,~176 fold
same,"trap preference, odorant-baited vs solvent-baited trap","C. quinquefasciatus; evaporative lure in water, overnight",preferred cyclopentanone over solvent-baited traps in a dose-dependent manner
same,capture numbers relative to CO2-baited traps,C. quinquefasciatus; similar trials in parallel,comparable
same,Activation (spikes s^−1),cpA neuron [1],120.1 spikes s^−1
same,cpA activation,cpA neuron [1]; A. aegypti dose response,strong activator
same,cpA activation,cpA neuron [2],strong activator
"CCN(CC)C(=O)c1cccc(C)c1 [DEET, N,N-Diethyl-m-toluamide]",inhibition of mammalian cation channels,[3],inhibit
same,inhibition of human acetylcholinesterase,[4],inhibit
CCCC(=O)Cl [butyryl chloride],"ability or preference for resting at top of cage, warm moist stimulus",A. aegypti [5],did not impair
same,proportion of mosquitoes that initiated upwind flight from release cage,A. aegypti [6]; after pre-exposure (cpA-off),greatly reduced
same,proportion of mosquitoes that landed on human odor beads,"A. aegypti [6]; after pre-exposure, 5-min assay",substantially reduced
same,summed responses of antennal neurons to panel of skin odorants (EAG),antennal neurons; after treatment,unaffected
same,summed response of antennal neurons to foot odor (EAG),antennal neurons; with or without treatment,not statistically different
same,cpA subsequent responses to 1% CO2,"cpA neuron [7]; 3-min exposure to 10^−2 volatiles, tested ~5-20 min after exposure",completely abolished
same,cpA responses to activating skin odorants,cpA neuron [7]; after 3-min pre-exposure,substantially reduced
same,time to recovery of cpA to control levels after treatment,cpA neuron [7]; after 3-min pre-exposure,12 to 24 h
same,odor-evoked responses of cpB and cpC neurons,"cpA neuron [7]; after treatment, selectivity for cpA",not reduced
same,cpA firing in response to subsequent CO2 stimuli,cpA neuron [7]; single puff of 1% butyryl chloride,inhibits cpA from firing
same,cpA response to foot odor collected on beads,cpA neuron [7]; tested ~5-20 min after exposure,completely lost
CCOC(=O)C(C)=O [ethyl 2-oxopropanoate],number of times mosquitoes landed on mesh over human hand,A. aegypti [8],substantially reduced
same,inhibition of cpA activity,cpA neuron [9],strongly inhibited
same,response of cpA neuron to human foot odor,cpA neuron [10],completely eliminates
same,catch of CO2-baited trap also dispensing odorant vs control CO2-baited trap,"C. quinquefasciatus; pure compound, ~1.7 mmol/hr",significantly fewer mosquitoes
same,Activation (spikes s^−1),cpA neuron [1],−63.0 spikes s^−1
